# Data: patent US20020090619A1, “Methods for identifying mitochondrial divalent cation transporters” (priority 2000, published 2002)
# Key:
# [1] = ETH 129 mediated cation transport into Quin-2 loaded POPC vesicles; assay type: biochemical; conditions: 1.0 mM CaCl2, no Val, FIG. 5
# Description: Unilamellar vesicles loaded with Quin-2 were prepared from 1-palmitoyl-2-oleoyl-sn-glycerophosphatidylcholine (POPC) by freeze-thaw extrusion (Erdahl et al., 1994 Biophys. J. 66:1678; Erdahl et al., 1995 Biophys. J. 69:2350). The formation medium contained 5 mM Quin-2 (K+), 10 mM Hepes (K+), pH 7.00, and 100 mM KCl. A high internal K+ concentration was sought to allow the generation of membrane potentials of varying magnitude (see below). The preparations obtained were applied to Sephadex™ G-50 mini-columns (Pharmacia, Piscataway N.J.) and eluted by low speed centrifugation (Fry et al., 1978 Anal. Biochem. 90:809), to replace the external medium with a 10 mM Hepes buffer (Na+), pH 7.00 (Erdahl et al., 1994 Biophys. J. 66:1678; Erdahl et al., 1995 Biophys. J. 69:2350). The nominal concentration of POPC in final preparations was determined as lipid phosphorus (Bartlett, 1959 J Biol. Chem. 234:466) and was near 80 mM. The average diameter of these vesicles was 71 nm as determined by freeze-fracture electron microscopy (Chapman et al., 1990 Chem. Phys. Lipids 55:73). They contained entrapped K+ at approximately 125 mM, as determined by atomic absorption spectroscopy, and Quin-2 at approximately 6 mM. The latter value was determined by titrating lysed vesicles with a standard solution of CaCl2 and was about one third of the expected value (Erdahl et al., 1995 Bipohys. J. 69:3250). The high solute level in the formation medium reduced the efficiency of Quin-2 entrapment by reducing the effectiveness of a freeze-thaw driven solute concentrating mechanism that normally elevates the internal concentrations of solutes, relative to the external medium (Chapman et al., 1990 Chem. Phys. Lipids 55:73; Chapman et al., 1990 Chem. Phys. Lipids 60:201).
# POPC vesicles containing Quin-2 were utilized at a nominal phospholipid concentration of 1.0 mM, and at 25° C. The external medium contained polyvalent cation salts as described below, 100 mM NaCl, or mixtures of NaCl and KCl totaling […], and 10 mM Hepes, pH 7.00, unless otherwise noted. The medium pH was adjusted with NaOH that had been passed over Chelex 100 columns to remove contaminating cations (Erdahl et al., 1994 Biophys. J. 66:1678). In most cases an inside negative membrane electrical potential was present during the experiments. This was generated by the presence of 0.5 μM valinomycin (Val), which transports K+ out of the vesicles electrogenically (Erdahl et al., 1994 Biophys. J. 66:1678). The magnitude of the potential was controlled by varying the concentration ratio of Na+ to K+ in the external medium. A TPP+electrode was used to measure the potential (Broekemeier et al, 1998 Biochem. 37:13059), and thereby to verify that the calculated values were obtained. For these purposes the incubation medium contained 2.0 μM TPP.Cl and the entrapped volume was taken to be 2.02 μl/ml at a nominal POPC concentration of 1.0 mM (Chapman et al., 1990 Chem. Phys. Lipids 55:73).
# Val was omitted when an imposed membrane potential was not desired, or in some cases 5 μM of the protonophore carbonyl cyanide m-chlorophenylhydrazone (CCP) was present instead of Val.
# The transport of polyvalent cations was monitored by difference absorbance measurements which detected formation of the Quin-2:cation complex within the vesicle lumen. An Aminco DW2a spectrophotometer operated in the dual wavelength mode was employed. In addition, an Oriel No. 59800 band pass filter was used between the cuvette and the beam scrambler-photomultiplier assembly to prevent detection of the fluorescent light emitted by Quin-2. The sample wavelength for all cations was 264 nm. The reference wavelengths were at an isosbestic point in the Quin-2/Quin-2:cation complex difference spectrum of interest. These wavelengths varied slightly from cation to cation, as previously described (Erdahl et al., 1996 Biochem. 35:13817). […]
# yeast mitochondria = experiment: Membrane potential ΔΨ of isolated yeast mitochondria (safranin O); assay type: biochemical, Saccharomyces cerevisiae; conditions: for effect on the depression of ΔΨ produced by ETH 129 plus Ca2+: 60 μM CaCl2, 3.6 μM ETH 129
# Description: The yeast strain W303-1A (Saccharomyces cerevisiae) was grown aerobically at 30° C. in a medium containing 2% lactate, 1% yeast extract, 2% peptone, 0.05% dextrose, and 0.01% adenine at pH 5.0, and cells were harvested during the logarithmic phase (A600=1.8−2.2). Mitochondria were isolated from spheroplasts as previously described (Jung et al., 1997 J. Biol. Chem. 272:21104), except that 0.6 M sucrose was used in the homogenization medium instead of 0.6 M mannitol (Daum et al., 1982 J. Biol. Chem. 257:13028). The resulting preparations were maintained on ice and were suspended in 0.6 M mannitol 20 mM HEPES (K+) (pH 6.8), containing 0.75 mg/ml BSA and 0.1 mM EGTA. Protein concentration was determined by a reduced volume Biuret method in which 50 μl of the final preparation were solubilized by adding an equal volume of 10% deoxycholate (Na+), with 0.4 ml of Biuret reagent added to the resulting mixture. BSA was employed as the standard.
# Unless otherwise noted, mitochondria were incubated at 1 mg protein/ml and at approximately 25° C. in a medium that contained 0.6 M mannitol, 10 mM Pi (K+), 10 mM Hepes (TEA+), pH 7.2, plus 1 mM ethanol as an oxidizable substrate. Compounds having a low solubility in water were added from stock solutions prepared in methanol or DMSO. Ca2+ transport and membrane potential were monitored using the indicating dyes antipyrylazo III (ΔA720-790) and safranin O (ΔA511-533), respectively (Akerman et al., 1976 FEBS Lett. 68:191; Scarpa et al., 1978 Biochem. 17:1378). An SLM Aminco DW-2C spectrophotometer operated in the dual wavelength mode was employed for these purposes. The same instrument, operated in split beam mode, was used to monitor mitochondrial swelling as a decrease in apparent absorbance of mitochondrial suspensions at 540 nm. Oxygen consumption data were obtained using a Clark-type electrode in parallel experiments. Atomic absorption spectroscopy was utilized to monitor the transport of other cations by yeast mitochondria. Briefly, samples were taken at appropriate times and the mitochondria were rapidly sedimented in a microcentrifuge. After carefully removing supernatants, the pellets were solubilized with 2 N percholoric acid (overnight) and centrifuged a second time. The resulting supernatants were diluted with an appropriate volume of distilled water and the concentration of the cation in question was subsequently determined.
# [2] = test system: isolated yeast mitochondria; experiment: Ca2+ transport in isolated yeast mitochondria expressing aequorin (luminescence); assay type: biochemical, Saccharomyces cerevisiae; conditions: for Rate of increase in matrix Ca^2+ concentration / % of Control: external free Ca^2+ 0.8 μM, agent 1 μM; for Rate of increase in matrix Ca^2+ concentration: triplicate; for % of Control: rate of increase in matrix Ca^2+
# Description: For preculture, the transformant was inoculated into 50 ml of SC-U plus 2% glucose, and incubated in an air shaker at 180 rpm and 30° C. At 24 hr, the preculture was transferred to 500 ml of a medium containing 1% yeast extract, 2% peptone, 2% lactate, 1% galactose, 0.012% adenine, pH 5 w/NaOH, and growth was continued under conditions which were otherwise the same. Cells were harvested after an additional 24 hr, spheroplasts were prepared using zymolyase, and mitochondria were isolated by the method of Daum et al. (1982) as previously described (Jung et al., 1997). The final pellet was resuspended at ˜20 mg protein/ml in 0.6 M mannitol, 20 mM HEPES (K^+ salt, pH 6.8). Apoaequorin in the intact or disrupted mitochondria was reconstituted by incubation with coelenterazine as described above for cells.
# For most experiments, the mitochondria were present at 0.4 mg protein/ml in a standard medium that contained 0.3 M KCl, 20 mM HEPES, (K^+ salt, pH 7.10), 10 mM KH2PO4, 2 mM EGTA, and 2 mM MgCl2. Other additions are described in greater detail below. Ca^2+ buffers were formed by adding various amounts of CaCl2 to this EGTA containing medium. The free Ca^2+ concentrations which resulted were calculated using a computer program (Brooks et al., 1992 Anal. Biochem. 201:119).
# Luminescence measurements were carried out in 6×50 mm culture tubes, using a total volume of 0.3 ml, and were started by injection of 5-20 μl of mitochondria or cells. A SAI model 3000 integrating photometer was employed, with AJD sampling at 0.4 seconds intervals driven by Asyst software. Values were transformed into corresponding Ca^2+ concentrations by computer assisted calculations based upon published calibration methods (Allen et al., 1977 Science 195:996; Brini et al., 1995 J. Biol. Chem. 270:9896). For each value, the ratio of observed luminescence (L) to the potential luminescence remaining (Lmax) was calculated, and compared to a calibration curve which relates this ratio to the free Ca^2+ concentration. Thus, complete calibrated progress curves were generated. The total luminescence available initially (Ltotal) must be known and was determined in separate experiments, wherein a saturating Ca^2+ concentration (20 μM) is employed to discharge the aequorin completely. This value allows Lmax to be calculated at any time, as Ltotal minus the sum of luminescence that already occurred.
# The calibration data were obtained at an ionic strength of 335 mM and in the presence of 1 mM Mg^2+, to mimic conditions in the mitochondrial matrix, because both factors influence the affinity of aequorin for Ca2+ (Cobbold et al., 1987 Biochem. J. 248:313). Luminescence values were corrected for low background values that are obtained when Ca^2+ is absent before conducting further calculations.
# intact yeast = experiment: Aequorin luminescence in intact yeast cells expressing mitochondrially targeted aequorin; assay type: cell-based, Saccharomyces cerevisiae; conditions: intact cells, FIG. 19B
# Description: Yeast cells (strain X4003-5B; leu2, ade1, his4, met2, ura3, trp5, gal1) obtained from the Yeast Genetic Stock Center (Berkeley, Calif.) were transformed with the pYES2 plasmid, encoding the human mitochondrially targeted apoaequorin fragment, using the lithium acetate method (Sambrook et al., 1989), and INVSc1 cells were transformed with the pGK plasmid encoding the yeast mitochondrially targeted apoaequorin fragment. Selection was carried out on plates prepared with synthetic complete medium minus uracil (SC-U) (Sherman, 1991 Meths. Enzymol. 194:3). Transformed colonies were cultured in a small volume of SC-U and assayed for aequorin activity in vitro as described by Nakajima et al. (1991 Proc. Nat. Acad. Sci. USA 88:6878). Briefly, the cells were harvested by centrifugation, resuspended in lysis buffer (50 mM Tris, 2 mM EDTA, 0.5 mM PMSF, pH 8 w/NaOH), disrupted by vortexing with glass beads, and then treated with 0.1% Triton X-100 to release apoaequorin from the mitochondria. Following centrifugation, 200 μl aliquots of the supernatants were incubated with coelenterazine (2.5 μM) and 2-mercaptoethanol (2 μl), for ˜3 hr while standing on ice, to form the luminescent aequorin from its apoprotein. The coelenterazine cofactor is highly hydrophobic and readily permeates yeast cell membranes (Nakajima et al., 1991) such that reconstitution was conducted without disrupting the cells in some cases. 2-mercaptoethanol was omitted when intact cells were employed. A transformant which yielded high luminescence (named X4003-5B-AEQmito1) was selected for further characterization.
# For preculture, the transformant was inoculated into 50 ml of SC-U plus 2% glucose, and incubated in an air shaker at 180 rpm and 30° C. At 24 hr, the preculture was transferred to 500 ml of a medium containing 1% yeast extract, 2% peptone, 2% lactate, 1% galactose, 0.012% adenine, pH 5 w/NaOH, and growth was continued under conditions which were otherwise the same. […]
# Luminescence measurements were carried out in 6×50 mm culture tubes, using a total volume of 0.3 ml, and were started by injection of 5-20 μl of mitochondria or cells. […] For each value, the ratio of observed luminescence (L) to the potential luminescence remaining (Lmax) was calculated, and compared to a calibration curve which relates this ratio to the free Ca^2+ concentration. […] The total luminescence available initially (Ltotal) must be known and was determined in separate experiments, wherein a saturating Ca^2+ concentration (20 μM) is employed to discharge the aequorin completely. This value allows Lmax to be calculated at any time, as Ltotal minus the sum of luminescence that already occurred. […]
Molecule,influence on activity of the transporter in yeast mitochondria [2],Rate of increase in matrix Ca^2+ concentration [2],% of Control [2] [%],other results
"N#CC(C#N)=NNc1cccc(Cl)c1 [CCP, carbonyl cyanide m-chlorophenylhydrazone]",–,–,–,activation of ETH 129 mediated Ca2+ transport [1]: rate enhancement increasing progressively as the CCP concentration rose to 5 μM
O=C(O)CN(CCOCCOCCN(CC(=O)O)CC(=O)O)CC(=O)O [EGTA],–,–,–,effect on the depression of ΔΨ produced by ETH 129 plus Ca2+ (yeast mitochondria): reversed
CO[C@@H]1C[C@@H](C[C@H]2CC[C@H](C)[C@H]([C@@H](C)C(=O)O)O2)O[C@]2(O[C@](C)([C@H]3CC[C@@](C)([C@@H]4O[C@@H]([C@H]5O[C@@](O)(CO)[C@H](C)C[C@@H]5C)C[C@@H]4C)O3)C[C@H]2C)[C@@H]1C [Nigericin],not influenced,2.17 ± .12 nM/s,111,–
N.N.N.N.N.N.N.N.N.N.N.N.N.N.[Cl-].[Cl-].[Cl-].[Cl-].[Cl-].[Cl-].[O-2].[O-2].[Ru+3].[Ru+3].[Ru+4] [Ruthenium red],not influenced,2.21 ± .23 nM/s,113,–
CC(C)[C@@H]1NC(=O)[C@H](C)OC(=O)[C@@H](C(C)C)NC(=O)[C@@H](C(C)C)OC(=O)[C@H](C(C)C)NC(=O)[C@H](C)OC(=O)[C@@H](C(C)C)NC(=O)[C@@H](C(C)C)OC(=O)[C@H](C(C)C)NC(=O)[C@H](C)OC(=O)[C@@H](C(C)C)NC(=O)[C@@H](C(C)C)OC1=O [Valinomycin],not influenced,2.32 ± .31 nM/s,118,–
C=C1[C@@H]2CC[C@H]3[C@]4(C)C[C@H](O[C@@H]5O[C@H](CO)[C@@H](OS(=O)(=O)O)[C@H](OS(=O)(=O)O)[C@H]5OC(=O)CC(C)C)CC(C(=O)O)(C(=O)O)[C@H]4CC[C@]3(C2)[C@H]1O [carboxyatractyloside],–,–,–,effect on the depression of ΔΨ produced by ETH 129 plus Ca2+ (yeast mitochondria): no effect
C[C@H](CCC(=O)O)C[C@H](C)C[C@H](C)C(=O)/C=C(\O)[C@H](C)C[C@H](C)C/C=C/[C@@H](C)[C@@H](O)[C@@H](C)[C@@H](O)C[C@@H]1CC[C@@](C)([C@H]2CC[C@@](C)([C@@H](C)O)O2)O1 [ionomycin],–,–,–,"effect on ΔΨ, ionophore together with Ca2+ (yeast mitochondria; BSA absent, CaCl2 plus ionophore, FIG. 11C): not duplicated"
coelenterazine n,–,–,–,luminescence intensity as aequorin cofactor vs parent coelenterazine (intact yeast): comparable to that of the parent
